From patent publication US20080096970A1, “Stable Nateglinide Form B Compositions” (priority 2004, published 2008)

Assay: Polymorphic stability of nateglinide Form B after processing: absence of Form H by X-ray powder diffraction
Type: physicochemical
Conditions: Cu Kα-1, after de-lumping and air jet milling, Form H detectable at about 2 percent by weight or more
Protocol: Stability of the nateglinide Form B after processing is determined by an absence of the polymorphic Form H of the compound. This is determined by generating X-ray powder diffraction patterns of samples and checking for the characteristic peaks that correspond to Form H. For the present application, the X-ray diffraction patterns of the figures were obtained with Cu Kα-1 radiation. Nateglinide Form H can be detected at concentrations at least about 2 percent by weight, and quantified at concentrations at least about 5 percent by weight.

presence of nateglinide Form H after particle size reduction (stability of Form B): not detected
SMILES: CC(C)[C@H]1CC[C@H](C(=O)NC(Cc2ccccc2)C(=O)O)CC1 (single isomer, unassigned; (-)) [nateglinide Form B, (−)-N-[(trans-4-isopropylcyclohexane)-carbonyl]-D-phenylalanine]
